Data reported in patent US20110294766A1, “16 Alpha, 17 Alpha-Acetal Glucocorticosteroidal Derivatives and their Use” (AstraZeneca AB, priority 2008, published 2011).

Biological target: T1, recombinant human GR (Homo sapiens, UniProt P04150)
T1 construct: purchased Panvera/Invitrogen P2812 (kit P2893)
T1 sequence (P04150 1-777): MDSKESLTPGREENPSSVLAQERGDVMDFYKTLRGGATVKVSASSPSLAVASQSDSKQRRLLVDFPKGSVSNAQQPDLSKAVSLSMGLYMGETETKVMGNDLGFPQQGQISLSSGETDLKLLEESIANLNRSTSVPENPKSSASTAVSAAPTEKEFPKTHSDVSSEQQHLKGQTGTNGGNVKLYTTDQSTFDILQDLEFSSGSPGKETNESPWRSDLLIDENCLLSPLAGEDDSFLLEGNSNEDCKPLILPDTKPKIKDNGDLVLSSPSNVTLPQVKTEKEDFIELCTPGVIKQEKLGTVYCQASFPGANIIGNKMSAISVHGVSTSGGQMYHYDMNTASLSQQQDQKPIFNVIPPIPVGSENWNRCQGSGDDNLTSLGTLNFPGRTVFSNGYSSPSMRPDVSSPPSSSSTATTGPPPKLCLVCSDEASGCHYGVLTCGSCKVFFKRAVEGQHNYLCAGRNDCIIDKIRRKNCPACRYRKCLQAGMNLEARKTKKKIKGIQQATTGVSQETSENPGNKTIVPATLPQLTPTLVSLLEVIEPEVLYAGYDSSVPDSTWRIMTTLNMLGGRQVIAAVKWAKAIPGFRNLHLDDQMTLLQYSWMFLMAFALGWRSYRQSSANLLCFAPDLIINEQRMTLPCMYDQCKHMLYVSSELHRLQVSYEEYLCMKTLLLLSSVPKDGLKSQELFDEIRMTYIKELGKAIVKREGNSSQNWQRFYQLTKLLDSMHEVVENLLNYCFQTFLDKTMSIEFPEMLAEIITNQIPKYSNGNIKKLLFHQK
Experiment: Human Glucocorticoid Receptor (GR) Assay (fluorescence polarization, Panvera/Invitrogen kit)
Details: GS Red tracer, 2 hours at room temperature, 100% control 10 μM Dexamethasone, read-out: Inhibition of GR binding, IC50
Procedure: Human Glucocorticoid Receptor (GR) Assay The assay is based on a commercial kit from Panvera/Invitrogen (Part number P2893). The assay technology is fluorescence polarization. The kit utilises recombinant human GR (Panvera, Part number P2812), a Fluoromone™ labelled tracer (GS Red, Panvera, Part number P2894) and a Stabilizing Peptide 10× (Panvera, Part number P2815). The GR and Stabilizing Peptide reagents are stored at −70° C. while the GS Red is stored at −20° C. Also included in the kit are 1M DTT (Panvera, Part number P2325, stored at −20° C.) and GR Screening buffer 10× (Panvera, Part number P2814, stored at −70° C. initially but once thawed stored at room temperature). Avoid repeated freeze/thaws for all reagents. The GR Screening buffer 10× comprises 100 mM potassium phosphate, 200 mM sodium molybdate, 1 mM EDTA and 20% DMSO. Test compounds (1 μL) and controls (1 μL) in 100% DMSO were added to black polystyrene 384-well plates (Greiner low volume black flat-bottom, part number 784076). 0% control was 100% DMSO and 100% control was 10 μM Dexamethasone. Background solution (8 μL; assay buffer 10×, Stabilizing Peptide, DTT and ice cold MQ water) was added to the background wells. GS Red solution (7 μL; assay buffer 10×, Stabilizing Peptide, DTT, GS Red and ice cold water) was added to all wells except background wells. GR solution (7 μL; assay buffer 10×, Stabilizing Peptide, DTT, GR and ice cold water) was added to all wells. The plate was sealed and incubated in a dark at room temperature for 2 hours. The plate was read in an Analyst plate reader (LJL Biosystems/Molecular Devices Corporation) or other similar plate reader capable of recording fluorescence polarization (excitation wavelength 530 nm, emission wavelength 590 nm and a dichroic mirror at 561 nm).

Row | SMILES | IC50
1 | C[C@]12C=CC(=O)C=C1[C@@H](F)C[C@H]1[C@@H]3C[C@H]4OC(c5ccc6ncccc6c5)O[C@@]4(C(=O)SCC#N)[C@@]3(C)C[C@H](O)[C@@]12F (stereo partly drawn) [Example 16, S-(Cyanomethyl)(4aS,4bR,5S,6aS,6bS,9aR,10aS,10bS,12S)-4b,12-difluoro-5-hydroxy-4a,6a-dimethyl-2-oxo-8-quinolin-6-yl-2,4a,4b,5,6,6a,9a,10,10a,10b,11,12-dodecahydro-6bH-naphtho[2′,1′:4,5]indeno[1,2-d][1,3]dioxole-6b-carbothioate] | 1.5 nM
2 | Cc1ccc(C2O[C@@H]3C[C@H]4[C@@H]5C[C@H](F)C6=CC(=O)C=C[C@]6(C)[C@@]5(F)[C@@H](O)C[C@]4(C)[C@]3(C(=O)SCF)O2)cc1 (stereo partly drawn) [Example 17, S-(Fluoromethyl)(4aS,4bR,5S,6aS,6bS,9aR,10aS,10bS,12S)-4b,12-difluoro-5-hydroxy-4a,6a-dimethyl-8-(4-methylphenyl)-2-oxo-2,4a,4b,5,6,6a,9a,10,10a,10b,11,12-dodecahydro-6bH-naphtho[2′,1′:4,5]indeno[1,2-d][1,3]dioxole-6b-carbothioate] | 1.8 nM
3 | C[C@]12C=CC(=O)C=C1[C@@H](F)C[C@H]1[C@@H]3C[C@H]4OC(c5ccc(C(F)(F)F)cc5)O[C@@]4(C(=O)SCF)[C@@]3(C)C[C@H](O)[C@@]12F (stereo partly drawn) [Example 18, S-(Fluoromethyl)(4aS,4bR,5S,6aS,6bS,9aR,10aS,10bS,12S)-4b,12-difluoro-5-hydroxy-4a,6a-dimethyl-2-oxo-8-[4-(trifluoromethyl)phenyl]-2,4a,4b,5,6,6a,9a,10,10a,10b,11,12-dodecahydro-6bH-naphtho[2′,1′:4,5]indeno[1,2-d][1,3]dioxole-6b-carbothioate] | 3.7 nM
4 | C[C@]12C=CC(=O)C=C1[C@@H](F)C[C@H]1[C@@H]3C[C@H]4OC(c5ccc(OC(F)(F)F)cc5)O[C@@]4(C(=O)SCC#N)[C@@]3(C)C[C@H](O)[C@@]12F (stereo partly drawn) [Example 19, S-(Cyanomethyl)(4aS,4bR,5S,6aS,6bS,9aR,10aS,10bS,12S)-4b,12-difluoro-5-hydroxy-4a,6a-dimethyl-2-oxo-8-[4-(trifluoromethoxy)phenyl]-2,4a,4b,5,6,6a,9a,10,10a,10b,11,12-dodecahydro-6bH-naphtho[2′,1′:4,5]indeno[1,2-d][1,3]dioxole-6b-carbothioate] | 4.8 nM
5 | C[C@]12C=CC(=O)C=C1[C@@H](F)C[C@H]1[C@@H]3C[C@H]4OC(c5ccc(C(F)(F)F)cc5)O[C@@]4(C(=O)SCC#N)[C@@]3(C)C[C@H](O)[C@@]12F (stereo partly drawn) [Example 20, S-(Cyanomethyl)(4aS,4bR,5S,6aS,6bS,9aR,10aS,10bS,12S)-4b,12-difluoro-5-hydroxy-4a,6a-dimethyl-2-oxo-8-[4-(trifluoromethyl)phenyl]-2,4a,4b,5,6,6a,9a,10,10a,10b,11,12-dodecahydro-6bH-naphtho[2′,1′:4,5]indeno[1,2-d][1,3]dioxole-6b-carbothioate] | 2.4 nM
6 | C[C@]12C=CC(=O)C=C1[C@@H](F)C[C@H]1[C@@H]3C[C@H]4OC(c5ccccc5F)O[C@@]4(C(=O)SCF)[C@@]3(C)C[C@H](O)[C@@]12F (stereo partly drawn) [Example 21, S-(Fluoromethyl)(4aS,4bR,5S,6aS,6bS,9aR,10aS,10bS,12S)-4b,12-difluoro-8-(2-fluorophenyl)-5-hydroxy-4a,6a-dimethyl-2-oxo-2,4a,4b,5,6,6a,9a,10,10a,10b,11,12-dodecahydro-6bH-naphtho[2′,1′:4,5]indeno[1,2-d][1,3]dioxole-6b-carbothioate] | 0.57 nM
7 | Cc1ccccc1C1O[C@@H]2C[C@H]3[C@@H]4C[C@H](F)C5=CC(=O)C=C[C@]5(C)[C@@]4(F)[C@@H](O)C[C@]3(C)[C@]2(C(=O)SCF)O1 (stereo partly drawn) [Example 22, S-(Fluoromethyl)(4aS,4bR,5S,6aS,6bS,9aR,10aS,10bS,12S)-4b,12-difluoro-5-hydroxy-4a,6a-dimethyl-8-(2-methylphenyl)-2-oxo-2,4a,4b,5,6,6a,9a,10,10a,10b,11,12-dodecahydro-6bH-naphtho[2′,1′:4,5]indeno[1,2-d][1,3]dioxole-6b-carbothioate] | 0.85 nM
8 | C[C@]12C=CC(=O)C=C1[C@@H](F)C[C@H]1[C@@H]3C[C@H]4OC(c5cccc(F)c5)O[C@@]4(C(=O)SCC#N)[C@@]3(C)C[C@H](O)[C@@]12F (stereo partly drawn) [Example 23, S-(Cyanomethyl)(4aS,4bR,5S,6aS,6bS,9aR,10aS,10bS,12S)-4b,12-difluoro-8-(3-fluorophenyl)-5-hydroxy-4a,6a-dimethyl-2-oxo-2,4a,4b,5,6,6a,9a,10,10a,10b,11,12-dodecahydro-6bH-naphtho[2′,1′:4,5]indeno[1,2-d][1,3]dioxole-6b-carbothioate] | 0.99 nM
9 | Cc1ccc(C2O[C@@H]3C[C@H]4[C@@H]5C[C@H](F)C6=CC(=O)C=C[C@]6(C)[C@@]5(F)[C@@H](O)C[C@]4(C)[C@]3(C(=O)SCC#N)O2)cc1 (stereo partly drawn) [Example 24, S-(Cyanomethyl)(4aS,4bR,5S,6aS,6bS,9aR,10aS,10bS,12S)-4b,12-difluoro-5-hydroxy-4a,6a-dimethyl-8-(4-methylphenyl)-2-oxo-2,4a,4b,5,6,6a,9a,10,10a,10b,11,12-dodecahydro-6bH-naphtho[2′,1′:4,5]indeno[1,2-d][1,3]dioxole-6b-carbothioate] | 1.2 nM
10 | C[C@]12C=CC(=O)C=C1[C@@H](F)C[C@H]1[C@@H]3C[C@H]4OC(c5cccc(C#N)c5)O[C@@]4(C(=O)SCC#N)[C@@]3(C)C[C@H](O)[C@@]12F (stereo partly drawn) [Example 25, S-(Cyanomethyl)(4aS,4bR,5S,6aS,6bS,9aR,10aS,10bS,12S)-8-(3-cyanophenyl)-4b,12-difluoro-5-hydroxy-4a,6a-dimethyl-2-oxo-2,4a,4b,5,6,6a,9a,10,10a,10b,11,12-dodecahydro-6bH-naphtho[2′,1′:4,5]indeno[1,2-d][1,3]dioxole-6b-carbothioate] | 0.7 nM
11 | C[C@]12C=CC(=O)C=C1[C@@H](F)C[C@H]1[C@@H]3C[C@H]4OC(c5ccc(F)cc5)O[C@@]4(C(=O)SCC#N)[C@@]3(C)C[C@H](O)[C@@]12F (stereo partly drawn) [Example 26, S-(Cyanomethyl)(4aS,4bR,5S,6aS,6bS,9aR,10aS,10bS,12S)-4b,12-difluoro-8-(4-fluorophenyl)-5-hydroxy-4a,6a-dimethyl-2-oxo-2,4a,4b,5,6,6a,9a,10,10a,10b,11,12-dodecahydro-6bH-naphtho[2′,1′:4,5]indeno[1,2-d][1,3]dioxole-6b-carbothioate] | 1.1 nM
12 | C[C@]12C=CC(=O)C=C1[C@@H](F)C[C@H]1[C@@H]3C[C@H]4OC(c5ccccc5F)O[C@@]4(C(=O)SCC#N)[C@@]3(C)C[C@H](O)[C@@]12F (stereo partly drawn) [Example 27, S-(Cyanomethyl)(4aS,4bR,5S,6aS,6bS,9aR,10aS,10bS,12S)-4b,12-difluoro-8-(2-fluorophenyl)-5-hydroxy-4a,6a-dimethyl-2-oxo-2,4a,4b,5,6,6a,9a,10,10a,10b,11,12-dodecahydro-6bH-naphtho[2′,1′:4,5]indeno[1,2-d][1,3]dioxole-6b-carbothioate] | 1.1 nM
13 | C[C@]12C=CC(=O)C=C1[C@@H](F)C[C@H]1[C@@H]3C[C@H]4OC(c5ccc(Cl)cc5)O[C@@]4(C(=O)SCC#N)[C@@]3(C)C[C@H](O)[C@@]12F (stereo partly drawn) [Example 28, S-(Cyanomethyl)(4aS,4bR,5S,6aS,6bS,9aR,10aS,10bS,12S)-8-(4-chlorophenyl)-4b,12-difluoro-5-hydroxy-4a,6a-dimethyl-2-oxo-2,4a,4b,5,6,6a,9a,10,10a,10b,11,12-dodecahydro-6bH-naphtho[2′,1′,4,5]indeno[1,2-d][1,3]dioxole-6b-carbothioate] | 1.3 nM
